# Data reported in patent publication US20100267561A1, “HERBICIDAL PYRIDAZINONE DERIVATIVES” (priority 2007, published 2010).
# Columns and labels:
# Assay in all cases: Test E pre-/postemergence plant response
# Format in all cases: in vivo
# [1] = tested on: barnyardgrass (Echinochloa crus-galli); conditions: scale 0 to 100
# Summary of the method: (§1)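 Plants scored visually versus controls on a 0–100 scale (100 = complete control) 14 to 21 days after treatment in the greenhouse. Test chemicals in a surfactant-containing non-phytotoxic solvent were applied to soil preemergence or to 1- to 4-leaf plants, 2–18 cm tall.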
# [2] = tested on: common chickweed (Stellaria media); conditions: Preemergence, scale 0 to 100
# Summary of the method: as §1
# [3] = tested on: Virginia (V.) dayflower (Commelina virginica); conditions: scale 0 to 100
# Summary of the method: as §1
# [4] = tested on: naked crabgrass (Digitaria nuda); conditions: scale 0 to 100
# Summary of the method: as §1
# [5] = tested on: Russian thistle (Salsola kali); conditions: Preemergence, scale 0 to 100
# Summary of the method: as §1
# [6] = tested on: broadleaf signalgrass (Brachiaria platyphylla); conditions: scale 0 to 100
# Summary of the method: as §1
# [7] = tested on: common sowthistle (Sonchus oleraceous); conditions: scale 0 to 100
# Summary of the method: as §1
# kochia (Kochia scoparia) = conditions: Preemergence, scale 0 to 100
# Summary of the method: as §1
# [8] = tested on: dallisgrass (Paspalum dilatatum); conditions: scale 0 to 100
# Summary of the method: as §1
# [9] = tested on: prickly sida (Sida spinosa); conditions: scale 0 to 100
# Summary of the method: as §1
# [10] = tested on: large crabgrass (Digitaria sanguinalis); conditions: scale 0 to 100
# Summary of the method: as §1
compound,measurement,setting,value
CCCc1cc(-c2ccc(Cl)cc2)nn1-c1c(O)cnn(C)c1=O [Compound 43],"Plant response rating, Barnyardgrass","[1]; 16 g ai/ha, Preemergence",50
same,"Plant response rating, Barnyardgrass","[1]; 31 g ai/ha, Preemergence",100
same,"Plant response rating, Barnyardgrass","[1]; 62 g ai/ha, Preemergence",100
same,"Plant response rating, Barnyardgrass","[1]; Postemergence, 8 g ai/ha",100
same,"Plant response rating, Barnyardgrass","[1]; Postemergence, 16 g ai/ha",100
same,"Plant response rating, Barnyardgrass","[1]; Postemergence, 31 g ai/ha",100
same,"Plant response rating, Barnyardgrass","[1]; Postemergence, 62 g ai/ha",100
same,"Plant response rating, Chickweed",[2]; 16 g ai/ha,0
same,"Plant response rating, Chickweed",[2]; 31 g ai/ha,0
same,"Plant response rating, Chickweed",[2]; 62 g ai/ha,0
same,"Plant response rating, Dayflower, V.","[3]; 16 g ai/ha, Preemergence",0
same,"Plant response rating, Dayflower, V.","[3]; 31 g ai/ha, Preemergence",0
same,"Plant response rating, Dayflower, V.","[3]; 62 g ai/ha, Preemergence",0
same,"Plant response rating, Dayflower, V.","[3]; Postemergence, 8 g ai/ha",0
same,"Plant response rating, Dayflower, V.","[3]; Postemergence, 16 g ai/ha",0
same,"Plant response rating, Dayflower, V.","[3]; Postemergence, 31 g ai/ha",0
same,"Plant response rating, Dayflower, V.","[3]; Postemergence, 62 g ai/ha",0
same,"Plant response rating, Crabgrass, Naked","[4]; 16 g ai/ha, Preemergence",35
same,"Plant response rating, Crabgrass, Naked","[4]; 31 g ai/ha, Preemergence",35
same,"Plant response rating, Crabgrass, Naked","[4]; 62 g ai/ha, Preemergence",75
same,"Plant response rating, Crabgrass, Naked","[4]; Postemergence, 8 g ai/ha",65
same,"Plant response rating, Crabgrass, Naked","[4]; Postemergence, 16 g ai/ha",65
same,"Plant response rating, Crabgrass, Naked","[4]; Postemergence, 62 g ai/ha",100
same,"Plant response rating, Thistle, Russian",[5]; 16 g ai/ha,0
same,"Plant response rating, Thistle, Russian",[5]; 31 g ai/ha,0
same,"Plant response rating, Thistle, Russian",[5]; 62 g ai/ha,0
same,"Plant response rating, Signalgrass","[6]; 16 g ai/ha, Preemergence",60
same,"Plant response rating, Signalgrass","[6]; 31 g ai/ha, Preemergence",100
same,"Plant response rating, Signalgrass","[6]; Postemergence, 8 g ai/ha",80
same,"Plant response rating, Signalgrass","[6]; Postemergence, 16 g ai/ha",80
same,"Plant response rating, Signalgrass","[6]; Postemergence, 31 g ai/ha",95
same,"Plant response rating, Signalgrass","[6]; Postemergence, 62 g ai/ha",98
same,"Plant response rating, Sowthistle","[7]; 16 g ai/ha, Preemergence",0
same,"Plant response rating, Sowthistle","[7]; 31 g ai/ha, Preemergence",0
same,"Plant response rating, Sowthistle","[7]; 62 g ai/ha, Preemergence",0
same,"Plant response rating, Sowthistle","[7]; Postemergence, 8 g ai/ha",0
same,"Plant response rating, Sowthistle","[7]; Postemergence, 16 g ai/ha",0
same,"Plant response rating, Sowthistle","[7]; Postemergence, 31 g ai/ha",0
same,"Plant response rating, Sowthistle","[7]; Postemergence, 62 g ai/ha",0
same,"Plant response rating, Kochia",kochia (Kochia scoparia); 16 g ai/ha,0
same,"Plant response rating, Kochia",kochia (Kochia scoparia); 31 g ai/ha,0
same,"Plant response rating, Kochia",kochia (Kochia scoparia); 62 g ai/ha,0
same,"Plant response rating, Dallisgrass","[8]; 16 g ai/ha, Preemergence",40
same,"Plant response rating, Dallisgrass","[8]; 31 g ai/ha, Preemergence",80
same,"Plant response rating, Dallisgrass","[8]; 62 g ai/ha, Preemergence",90
same,"Plant response rating, Dallisgrass","[8]; Postemergence, 8 g ai/ha",0
same,"Plant response rating, Dallisgrass","[8]; Postemergence, 31 g ai/ha",20
same,"Plant response rating, Dallisgrass","[8]; Postemergence, 62 g ai/ha",50
same,"Plant response rating, Prickly Sida","[9]; 16 g ai/ha, Preemergence",0
same,"Plant response rating, Prickly Sida","[9]; 31 g ai/ha, Preemergence",0
same,"Plant response rating, Prickly Sida","[9]; 62 g ai/ha, Preemergence",0
same,"Plant response rating, Prickly Sida","[9]; Postemergence, 8 g ai/ha",0
same,"Plant response rating, Prickly Sida","[9]; Postemergence, 16 g ai/ha",0
same,"Plant response rating, Prickly Sida","[9]; Postemergence, 31 g ai/ha",0
same,"Plant response rating, Prickly Sida","[9]; Postemergence, 62 g ai/ha",0
same,"Plant response rating, Crabgrass, Large","[10]; 16 g ai/ha, Preemergence",0
same,"Plant response rating, Crabgrass, Large","[10]; 31 g ai/ha, Preemergence",70
same,"Plant response rating, Crabgrass, Large","[10]; 62 g ai/ha, Preemergence",80
same,"Plant response rating, Crabgrass, Large","[10]; Postemergence, 8 g ai/ha",30
same,"Plant response rating, Crabgrass, Large","[10]; Postemergence, 16 g ai/ha",60
same,"Plant response rating, Crabgrass, Large","[10]; Postemergence, 31 g ai/ha",80
same,"Plant response rating, Crabgrass, Large","[10]; Postemergence, 62 g ai/ha",80
